Test results from the supplement of paper PMC11451515.

Test system: P12-Ichikawa
Assay: cell viability relative to DMSO control; higher = less cytotoxic
Conditions: 48 h
Procedure, shortened: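 Cells were incubated for 48 h at 37°C before CellTiter-Glo One luminescence was read. The cells were NOMO1 or SEM (500 cells/well) or P12-Ichikawa (1000 cells/well) leukemia cells, adapted for at least four passages in each medium and seeded in 1536-well plates (5 μl). Dosing used library compounds in DMSO applied by pin over 11 threefold points, 47 μM to 0.79 nM. Viability is the per-plate percentage of DMSO wells, with cell-free wells as background.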

[1] = HPLM + 10% dialyzed FBS, 0.000781 µM
[2] = HPLM + 10% dialyzed FBS, 0.00234 µM
[3] = HPLM + 10% dialyzed FBS, 0.00702 µM
[4] = HPLM + 10% dialyzed FBS, 0.0211 µM
[5] = HPLM + 10% dialyzed FBS, 0.0632 µM
[6] = HPLM + 10% dialyzed FBS, 0.19 µM
[7] = HPLM + 10% dialyzed FBS, 0.569 µM
[8] = HPLM + 10% dialyzed FBS, 1.71 µM
[9] = HPLM + 10% dialyzed FBS, 5.12 µM
[10] = HPLM + 10% dialyzed FBS, 15.4 µM
[11] = HPLM + 10% dialyzed FBS, 46.1 µM
[12] = RPMI 5 mM glucose + 10% FBS, 0.000781 µM
[13] = RPMI 5 mM glucose + 10% FBS, 0.00234 µM
[14] = RPMI 5 mM glucose + 10% FBS, 0.00702 µM
[15] = RPMI 5 mM glucose + 10% FBS, 0.0211 µM
[16] = RPMI 5 mM glucose + 10% FBS, 0.0632 µM
[17] = RPMI 5 mM glucose + 10% FBS, 0.19 µM
[18] = RPMI 5 mM glucose + 10% FBS, 0.569 µM
[19] = RPMI 5 mM glucose + 10% FBS, 1.71 µM
[20] = RPMI 5 mM glucose + 10% FBS, 5.12 µM
[21] = RPMI 5 mM glucose + 10% FBS, 15.4 µM
[22] = RPMI 5 mM glucose + 10% FBS, 46.1 µM
[23] = RPMI 5 mM glucose + 10% dialyzed FBS, 0.000781 µM
[24] = RPMI 5 mM glucose + 10% dialyzed FBS, 0.00234 µM
[25] = RPMI 5 mM glucose + 10% dialyzed FBS, 0.00702 µM
[26] = RPMI 5 mM glucose + 10% dialyzed FBS, 0.0211 µM
[27] = RPMI 5 mM glucose + 10% dialyzed FBS, 0.0632 µM
[28] = RPMI 5 mM glucose + 10% dialyzed FBS, 0.19 µM
[29] = RPMI 5 mM glucose + 10% dialyzed FBS, 0.569 µM
[30] = RPMI 5 mM glucose + 10% dialyzed FBS, 1.71 µM
[31] = RPMI 5 mM glucose + 10% dialyzed FBS, 5.12 µM
[32] = RPMI 5 mM glucose + 10% dialyzed FBS, 15.4 µM
[33] = RPMI 5 mM glucose + 10% dialyzed FBS, 46.1 µM

SMILES	cell viability [1] [%]	cell viability [2] [%]	cell viability [3] [%]	cell viability [4] [%]	cell viability [5] [%]	cell viability [6] [%]	cell viability [7] [%]	cell viability [8] [%]	cell viability [9] [%]	cell viability [10] [%]	cell viability [11] [%]	cell viability [12] [%]	cell viability [13] [%]	cell viability [14] [%]	cell viability [15] [%]	cell viability [16] [%]	cell viability [17] [%]	cell viability [18] [%]	cell viability [19] [%]	cell viability [20] [%]	cell viability [21] [%]	cell viability [22] [%]	cell viability [23] [%]	cell viability [24] [%]	cell viability [25] [%]	cell viability [26] [%]	cell viability [27] [%]	cell viability [28] [%]	cell viability [29] [%]	cell viability [30] [%]	cell viability [31] [%]	cell viability [32] [%]	cell viability [33] [%]
Nc1nc(-c2nn(Cc3ccccc3F)c3ncccc23)nc(N)c1N1CCOCC1	92.3	100	105	111	111	112	110	109	109	107	95.9	93.1	97.9	98.8	116	107	112	110	109	107	111	107	86.1	101	100	108	104	92.1	107	101	104	103	87.3
COC1=CC=C2Nc3cc(Cl)ccc3C(N=C3C=C(CN4CCCC4)C(=O)C(CN4CCCC4)=C3)=C2N1	116	116	116	122	123	123	120	127	124	117	103	110	131	114	130	133	130	133	132	129	122	87.6	113	123	120	126	120	115	127	125	115	117	93
Clc1ccc(C2(c3ccc(-c4cn[nH]c4)cc3)CCNCC2)cc1	91.3	94.4	101	96.8	101	98	92.3	89.3	73.2	57.5	59.9	86.9	94.2	85.9	91	89	83.1	78.8	75.4	65.9	43.1	44.1	91	92.2	90.7	87.5	95	93.5	91.8	78.7	68.5	49.7	49.7
CC(C)C[C@H](CN)CC(=O)O	111	106	106	109	106	103	101	102	95.7	94.2	93	99.4	105	102	96.2	101	99.3	93.6	96.1	92.3	91.5	95.6	103	102	107	106	97.1	96	98.9	96.6	95.7	97.9	98.4
O=C1c2c(O)cccc2[C@H]([C@@H]2O[C@H](CO)[C@@H](O)[C@H](O)[C@H]2O)c2cc(CO)cc(O)c21	91	95.8	95.1	107	107	98.7	106	99.4	103	98.4	103	93.9	93.3	102	109	105	109	108	106	101	106	106	91	96.4	90.9	96.8	106	95.2	97	95.7	103	99.4	99
COc1nc(-c2ccc3c(c2)OCO3)n(-c2ccc(NC(=O)CSc3ccccc3)cc2)n1	109	108	111	107	108	110	112	104	104	103	108	107	116	113	118	118	113	113	103	102	97.2	92.5	130	107	119	107	116	104	120	108	95.9	108	85.6
COc1cc2ncnc(-n3nc(-c4ccccn4)nc3N)c2cc1OC	93.6	97.9	102	99.7	95.9	103	105	104	88.5	96	0.508	89.2	100	98.6	101	98	105	107	102	78	82.7	0.293	83.8	92.6	90	81.6	93.2	107	96.2	101	82.6	82.9	0.35
CCC[C@@H]1C[C@@H](C(=O)N[C@@H]([C@H]2O[C@H](SC)[C@H](O)[C@@H](O)[C@H]2O)[C@@H](C)O)N(C)C1.Cl	119	113	122	111	122	125	111	98.8	97.8	106	100	119	114	106	112	119	123	89.9	83	96	102	101	122	117	128	140	145	108	66.4	70	112	95.9	94.4
COc1cc2nccc(Oc3ccc(NC(=O)C4(C(=O)Nc5ccc(F)cc5)CC4)cc3)c2cc1OC	114	91.5	122	111	115	111	118	113	96.3	71.7	34	112	112	116	117	119	116	112	114	106	82.5	19.7	106	118	120	121	123	124	113	113	101	60.5	28.9
ClC1=CC=C(CCCOC/2=N/NC(=O)C(=C2NCC3=CN=CC=C3)/Br)C=C1	115	115	113	117	118	110	104	95.5	61.6	35.7	14.4	109	114	110	122	125	124	113	112	96.3	69.6	38.5	113	115	116	110	110	115	106	90.4	56.7	26.9	13.7
Cl.c1cnc2cc3c(cc2n1)C1CNCC3C1	108	111	114	114	119	114	117	122	114	114	106	106	115	121	117	122	117	127	118	127	130	130	106	113	112	116	123	114	121	123	121	116	120
O=C1Nc2ccccc2/C1=C1\Nc2ccccc2C1=O	106	106	109	102	104	101	104	103	94.9	104	97.9	101	111	103	105	110	108	104	104	95.9	99.7	98	99.3	102	105	91.2	104	97.1	106	94.9	93.1	102	83.4
CCCCCCCCCCCC(CC1OC(=O)C1CCCCCC)OC(=O)C(CC(C)C)NC=O (centres undefined)	98.6	110	110	105	111	107	119	107	105	84.2	3.42	105	117	114	120	118	114	114	114	103	85.8	10.6	101	107	103	108	117	112	116	112	99.3	87.2	7.97
O=C(O)[C@H](Cc1c[nH]c2ccccc12)N1C(=O)c2ccccc2C1=O	98.3	109	104	106	99.5	99.8	105	110	103	102	99.3	89.6	91.9	91.3	93.4	98.3	103	103	97	101	101	94.3	91.2	90.5	91.8	102	94.4	99.5	99	105	95	98.6	92.2
C[C@H]([C@H](O)CCC(C)(C)O)[C@H]1CC[C@@]2(O)C/3=C/C(=O)[C@@H]4C[C@@H](O)[C@@H](O)C[C@]4(C)[C@H]3CC[C@]12C	–	–	–	–	–	–	–	–	–	–	–	–	–	–	–	–	–	–	–	–	–	–	109	125	121	124	131	122	119	121	120	107	113
C[C@@H]1CC[C@@]2(OC1)O[C@H]3C[C@H]4[C@@H]5C/C=C6/C[C@H](CC[C@]6(C)[C@H]5CC[C@]4(C)[C@H]3[C@@H]2C)O[C@@H]7O[C@H](CO)[C@@H](O[C@@H]8O[C@@H](C)[C@H](O)[C@@H](O)[C@H]8O)[C@H](O)[C@H]7O[C@@H]9O[C@@H](C)[C@H](O)[C@@H](O)[C@H]9O	124	128	119	131	129	130	136	134	132	116	7.3	–	–	–	–	–	–	–	–	–	–	–	–	–	–	–	–	–	–	–	–	–	–
